Reference: publication PMC7496275, “Pentathiepins: A Novel Class of Glutathione Peroxidase 1 Inhibitors that Induce Oxidative Stress, Loss of Mitochondrial Membrane Potential and Apoptosis in Human Cancer Cells” (Chemmedchem, 2020)

Legend:
HL-60 cells [1] = experiment: Cell morphology after incubation; assay type: cell-based, human; details: 25 μM, 6 h
Gumbus cells [2] = experiment: Cell morphology after incubation; assay type: cell-based, human; details: 25 μM, 6 h
HAP-1 cells = experiment: Alkaline comet assay; assay type: cell-based, human; details: 25 μM, 15 min at 0 °C
Method: To assess the induction of DNA strand breaks by pentathiepin 4 the Comet Assay was used. The SISO and HAP‐1 cell lines were treated with either 1 % DMF (solvent control), 20 μM H2O2 (positive control) or 25 μM 4 for 15 min at 0 °C. The DNA in the comet head corresponds to still intact genomic DNA while the tail forms due to the damage of nuclear DNA (Figure 9B). […] For HAP‐1 cells a greater reduction of intact DNA from 86 % in control cells to 66 % in pentathiepin‐incubated cells was observed.
Alkaline comet assay to assess induction of DNA strand breaks: The method was adapted from Olive and Banath.40 The alkaline protocol allows for the detection of single and double strand breaks as well as alkali‐labile sites and is based on the different electrophoretic mobility of intact and damaged nuclear DNA. […] The induction of strand breaks creates free charged ends that drift out and form the characteristic comet tail. The percentage of DNA that is located in the comet head was selected as descriptor, which corresponds to the amount of still intact genomic DNA.
Briefly, SISO and HAP‐1 cells were harvested by trypsinization and a single cell suspension with 50 000 cells per mL PBS was prepared. Per condition 50 000 cells were incubated on ice (to impair DNA repair) with either the solvent control DMF (1.0 %), 20 μM H2O2 or 25 μM 4 for 15 min. Afterwards, 400 μL of the cell suspension were mixed with 1.2 mL 1 % low melting point agarose (Carl Roth, Germany) at 40 °C and evenly distributed on agarose‐precoated (GeneOn, Germany) glass slides (Thermo Fisher). After 3 min polymerization the slides were horizontally submerged in lysis buffer (1.2 M NaCl (Carl Roth, Germany), 0.1 % N‐Lauryl‐Sarcosinate (Merck), 0.1 M Na‐EDTA, 0.26 M NaOH) and placed at 4 °C overnight. Before electrophoresis at 0.6 V/cm for 25 min the slides were rinsed three times in rinse/electrophoresis buffer (0.002 M Na‐EDTA, 0.03 M NaOH). Afterwards, the slides were neutralized in distilled water and subsequently stained with 250 μL of a 10 μg/mL PI in water solution for 20 min. Finally, the slides were analyzed with a Leica DMi8 fluorescent microscope and LASX software (Leica, Germany) and comets were scored with CometScore 2.0 (Rex A. Hoover, www.rexhoover.com). At least 100 comets were scored per condition.

HL-60 cells [3] = experiment: MTT cell viability assay; assay type: cell-based; details: Homo sapiens, 48 h, read-out: IC50 for viability reduction
Method: We determined IC50 values for the viability reduction in a low micro molar range (Figure 6B).
MTT cell viability assay: For the detection of the inhibition of the viability of cells by the pentathiepins, the MTT‐viability assay was used.37 Briefly, 10 000 and 20 000 cells for the suspension cell lines HL‐60 and Gumbus, respectively, were seeded out in 50 μL medium per well and immediately exposed to the compounds. For the adherent cell lines SISO and HAP‐1, 3000 and 5000 cells, respectively, were seeded out in 96‐well plates and allowed to attach for 24 h. Cells were exposed to nine serial dilutions of compound, added to the medium from 1000‐fold concentrated stock solution in DMF. For the controls, cells were exposed to 0.1 % DMF alone. After 48 h incubation, 20 μL of the MTT stock solution (2.5 mg/mL in PBS) were added to each well to give a final concentration of 1.0 mM. The formazan crystals that formed after 4 h at 37 °C were dissolved by sonification after adding 100 μL of 0.04 M HCl in isopropanol for the suspension cell lines, or with 50 μL DMSO after aspiration of the medium for the adherent cell lines. Optical density was measured with a SpectraMax Plus 383 microtiter plate read at λ=570 nm (Molecular Devices, USA). […]

human GPx = experiment: GPx activity assay with human cancer cell lysates (SISO); assay type: biochemical; details: inhibitor at its IC50 for bovine GPx, 0.5 mM GSH
Method: To investigate whether the pentathiepins have an inhibitory effect on human GPx, cell lysates of the human cervix cancer cell line SISO, which expresses high levels of GPx1 (see below), were incubated with either 4 or MSA in concentrations of the IC50 value for the inhibitory effect on bovine GPx1.
To measure the inhibition of human GPx activity, the enzyme assay was adapted to use human cancer cell lysates in place of the bovine enzyme. A quantity of 100 μg cellular protein (determined according to the Bradford method) per well was used. Due to the large consumption of cell lysates, just the inhibitory effect on GPx at one concentration of pentathiepin was determined in primary screening. The concentration of GSH was raised to a concentration of 0.5 mM to increase the velocity of the reaction, all other conditions were unchanged. The rates of NADPH oxidation were normalized to the solvent control. […] We used 100 μg protein of lysates and added GSH up to final concentrations between 0.375–3 mM. The rates of the GPx activity were calculated by nonlinear regression and the fitted with the GraphPad Prism 6.0 software: “Enzyme kinetics – Substrate vs. Velocity (Michaelis‐Menten)”.

HL-60 cells [4] = experiment: Detection of reactive oxygen species (DCF-DA flow cytometry); assay type: cell-based, human; details: 25 μM, 10 min
From the text: (§1) It has long been observed that pentathiepins are able to produce reactive oxygen species outside of cells.16, 17, 20 Whether ROS production can also occur in living cells has not yet been reported. To determine if 4 can produce ROS in HL‐60 and Gumbus cells, the cytosolic ROS detector 2′,7′‐dichlorofluorescin diacetate (DCF−DA) was used. […] Thus, pentathiepins appear capable of generating ROS inside living cells within a very short period of time.
(§2) Detection of reactive oxygen species: To detect cellular reactive oxygen species (ROS) a flow cytometry technique based on the use of the ROS‐sensor 2′,7′‐dichlorofluorescin diacetate (DCF‐DA) was used.38 Briefly, cells were collected in reaction tubes and washed with 500 μL phosphate buffered saline (PBS). The cell pellets were resuspended in 1 mL PBS and stained with 2 μL DCF‐DA stock solution (10 mM in DMSO) for 30 min at 37 °C. Then cells were washed with 500 μL PBS and suspended in 1 mL PBS followed by addition of […] 4 ([…]) to a final concentration of 25 μM. After an incubation period of 10 min cells were washed with PBS, resuspended in 500 μL PBS and analyzed by flow cytometry with a MACSQuant Analyzer 10 (Miltenyi Biotec, Germany) set at λ Ex/Em=488/530 nm.

Gumbus cells [5] = experiment: as above; assay type: cell-based, human; details: 25 μM, 10 min
From the text: as §1, §2

IC50 (HL-60 cells [3]): 6.9 µM
SMILES: CCOc1c2c(c3cnc4cc(C)c(C)cc4n13)SSSSS2 [Compound 4]
change in morphology (HL-60 cells [1]): membrane blebbing
change in morphology (Gumbus cells [2]): membrane blebbing
percentage of intact DNA in comet head (HAP-1 cells): 66%
inhibition of GPx activity (human GPx): about 20%
ROS formation (HL-60 cells [4]): rapid but not as intense as with the Gumbus line
ROS formation (Gumbus cells [5]): significant burst of ROS
